Measurements reported in ChEMBL document CHEMBL1152560, “Substituted 2-arylbenzothiazoles as kinase inhibitors: hit-to-lead optimization” (Bioorg Med Chem, 2009).

Tests used:
[1] = biological target: Tyrosine-protein kinase Fgr (Homo sapiens) (UniProt P09769); test: Residual activity of FGR at 1 uM by microplate scintillation counting
[2] = biological target: Homeodomain-interacting protein kinase 1 (Homo sapiens) (UniProt Q86Z02); test: Residual activity of HIPK1 at 1 uM by microplate scintillation counting
[3] = biological target: Serine/threonine-protein kinase Nek7 (Homo sapiens) (UniProt Q8TDX7); test: Residual activity of NEK7 at 1 uM by microplate scintillation counting
[4] = biological target: T1, Ephrin type-B receptor 2 (Homo sapiens) (UniProt P29323); test: Residual activity of EPHB2 at 10 uM by microplate scintillation counting
T1 sequence (whole entry): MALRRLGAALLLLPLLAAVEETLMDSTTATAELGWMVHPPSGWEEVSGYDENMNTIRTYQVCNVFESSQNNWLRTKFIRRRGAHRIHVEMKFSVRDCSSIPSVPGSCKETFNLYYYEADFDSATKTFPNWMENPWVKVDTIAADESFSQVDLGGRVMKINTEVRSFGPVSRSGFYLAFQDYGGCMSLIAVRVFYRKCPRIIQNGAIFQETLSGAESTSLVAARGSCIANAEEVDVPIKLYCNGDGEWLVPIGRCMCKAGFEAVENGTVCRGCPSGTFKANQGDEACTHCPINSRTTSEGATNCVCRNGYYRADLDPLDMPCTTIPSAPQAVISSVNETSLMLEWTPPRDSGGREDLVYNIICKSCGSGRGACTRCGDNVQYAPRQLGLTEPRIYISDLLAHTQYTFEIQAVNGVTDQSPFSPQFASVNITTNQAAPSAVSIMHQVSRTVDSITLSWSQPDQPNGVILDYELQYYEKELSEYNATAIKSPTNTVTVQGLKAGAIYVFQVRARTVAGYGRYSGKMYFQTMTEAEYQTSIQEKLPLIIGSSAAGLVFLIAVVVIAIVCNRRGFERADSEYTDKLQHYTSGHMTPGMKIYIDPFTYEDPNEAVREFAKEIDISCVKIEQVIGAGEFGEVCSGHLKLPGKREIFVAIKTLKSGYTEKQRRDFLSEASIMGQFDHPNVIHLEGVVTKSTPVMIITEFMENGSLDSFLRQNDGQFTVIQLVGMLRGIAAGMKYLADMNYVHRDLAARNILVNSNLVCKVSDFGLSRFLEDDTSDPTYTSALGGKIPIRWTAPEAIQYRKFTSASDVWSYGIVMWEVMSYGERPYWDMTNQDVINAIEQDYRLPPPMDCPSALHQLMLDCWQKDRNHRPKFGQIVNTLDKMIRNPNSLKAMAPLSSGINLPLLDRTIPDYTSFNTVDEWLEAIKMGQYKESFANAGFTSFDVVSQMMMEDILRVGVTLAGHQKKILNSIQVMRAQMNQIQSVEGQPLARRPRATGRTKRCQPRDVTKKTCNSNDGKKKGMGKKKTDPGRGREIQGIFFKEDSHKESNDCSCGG

[5] = biological target: Mitogen-activated protein kinase kinase kinase 14 (Homo sapiens) (UniProt Q99558); test: Residual activity of NIK at 10 uM by microplate scintillation counting
[6] = biological target: RAC-gamma serine/threonine-protein kinase (Homo sapiens) (UniProt Q9Y243); test: Residual activity of AKT3 at 0.1 uM by microplate scintillation counting
[7] = biological target: T2, Aurora kinase A (Homo sapiens) (UniProt O14965); test: Residual activity of Aurora-A at 0.1 uM by microplate scintillation counting
T2 sequence (whole entry): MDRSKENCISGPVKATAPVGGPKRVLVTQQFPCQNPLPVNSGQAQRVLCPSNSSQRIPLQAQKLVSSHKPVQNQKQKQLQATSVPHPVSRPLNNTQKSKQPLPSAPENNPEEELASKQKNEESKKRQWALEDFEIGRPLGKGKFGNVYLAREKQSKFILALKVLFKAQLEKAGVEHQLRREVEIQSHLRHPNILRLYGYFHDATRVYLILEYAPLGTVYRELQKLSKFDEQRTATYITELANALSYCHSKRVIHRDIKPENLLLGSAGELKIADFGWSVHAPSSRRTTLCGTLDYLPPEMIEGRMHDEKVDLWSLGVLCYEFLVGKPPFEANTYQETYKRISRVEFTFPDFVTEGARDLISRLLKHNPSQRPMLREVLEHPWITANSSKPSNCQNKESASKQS

[8] = biological target: T3, Serine/threonine-protein kinase Sgk1 (Homo sapiens) (UniProt O00141); test: Residual activity of SGK1 at 10 uM by microplate scintillation counting
T3 sequence (whole entry): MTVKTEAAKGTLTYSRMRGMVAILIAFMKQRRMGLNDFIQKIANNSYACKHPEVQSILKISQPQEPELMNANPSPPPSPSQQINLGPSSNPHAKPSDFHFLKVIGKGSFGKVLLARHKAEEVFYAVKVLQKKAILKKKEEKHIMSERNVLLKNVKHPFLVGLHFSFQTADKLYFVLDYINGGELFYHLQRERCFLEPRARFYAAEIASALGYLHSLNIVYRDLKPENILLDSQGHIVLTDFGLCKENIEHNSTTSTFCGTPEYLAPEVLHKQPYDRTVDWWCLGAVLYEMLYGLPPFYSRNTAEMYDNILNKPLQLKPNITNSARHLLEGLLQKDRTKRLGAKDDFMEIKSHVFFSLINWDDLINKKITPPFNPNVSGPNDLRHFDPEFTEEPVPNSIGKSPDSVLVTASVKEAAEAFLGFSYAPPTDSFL

[9] = biological target: T4, Protein kinase C zeta type (Homo sapiens) (UniProt Q05513); test: Residual activity of PKCzeta at 0.1 uM by microplate scintillation counting
T4 sequence (whole entry): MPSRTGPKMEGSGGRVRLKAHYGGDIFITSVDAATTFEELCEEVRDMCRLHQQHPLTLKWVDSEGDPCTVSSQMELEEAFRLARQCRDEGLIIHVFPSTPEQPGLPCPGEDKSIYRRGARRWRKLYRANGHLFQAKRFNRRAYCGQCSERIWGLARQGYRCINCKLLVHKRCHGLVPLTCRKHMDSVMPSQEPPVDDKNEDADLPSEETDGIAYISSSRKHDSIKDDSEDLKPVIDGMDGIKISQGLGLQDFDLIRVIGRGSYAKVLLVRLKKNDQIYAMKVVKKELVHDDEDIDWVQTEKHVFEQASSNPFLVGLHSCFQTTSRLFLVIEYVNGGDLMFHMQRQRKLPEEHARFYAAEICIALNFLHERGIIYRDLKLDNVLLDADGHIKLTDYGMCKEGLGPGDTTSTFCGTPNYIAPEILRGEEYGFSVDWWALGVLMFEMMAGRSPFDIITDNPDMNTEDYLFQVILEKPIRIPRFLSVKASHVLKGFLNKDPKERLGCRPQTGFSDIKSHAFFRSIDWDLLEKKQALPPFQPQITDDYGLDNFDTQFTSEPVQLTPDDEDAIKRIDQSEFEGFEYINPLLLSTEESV

Sequence of Tyrosine-protein kinase Fgr (Homo sapiens) (P09769 2-529 limits assumed): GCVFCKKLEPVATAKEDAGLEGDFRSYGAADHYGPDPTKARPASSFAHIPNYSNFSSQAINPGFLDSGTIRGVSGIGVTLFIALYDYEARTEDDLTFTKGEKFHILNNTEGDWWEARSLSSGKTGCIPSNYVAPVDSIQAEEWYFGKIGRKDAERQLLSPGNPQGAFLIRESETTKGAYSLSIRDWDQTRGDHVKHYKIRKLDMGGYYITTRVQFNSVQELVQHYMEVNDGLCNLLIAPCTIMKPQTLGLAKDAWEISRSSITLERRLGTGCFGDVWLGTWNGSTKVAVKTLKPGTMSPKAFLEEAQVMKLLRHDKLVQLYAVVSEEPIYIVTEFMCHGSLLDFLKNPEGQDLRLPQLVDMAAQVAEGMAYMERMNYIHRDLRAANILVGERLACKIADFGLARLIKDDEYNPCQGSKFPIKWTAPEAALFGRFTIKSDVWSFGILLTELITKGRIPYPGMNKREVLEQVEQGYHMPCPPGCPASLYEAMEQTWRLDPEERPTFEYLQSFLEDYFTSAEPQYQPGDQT
Sequence of Serine/threonine-protein kinase Nek7 (Homo sapiens) (Q8TDX7 whole entry, looked up): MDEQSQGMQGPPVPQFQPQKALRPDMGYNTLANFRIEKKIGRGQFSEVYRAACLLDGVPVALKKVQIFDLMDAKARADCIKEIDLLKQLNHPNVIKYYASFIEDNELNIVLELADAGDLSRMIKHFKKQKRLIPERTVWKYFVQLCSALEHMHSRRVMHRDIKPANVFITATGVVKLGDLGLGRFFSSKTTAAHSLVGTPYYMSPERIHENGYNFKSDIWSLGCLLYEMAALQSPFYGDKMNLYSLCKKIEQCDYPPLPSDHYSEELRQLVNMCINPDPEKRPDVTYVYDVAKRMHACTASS
Sequence of RAC-gamma serine/threonine-protein kinase (Homo sapiens) (Q9Y243 whole entry): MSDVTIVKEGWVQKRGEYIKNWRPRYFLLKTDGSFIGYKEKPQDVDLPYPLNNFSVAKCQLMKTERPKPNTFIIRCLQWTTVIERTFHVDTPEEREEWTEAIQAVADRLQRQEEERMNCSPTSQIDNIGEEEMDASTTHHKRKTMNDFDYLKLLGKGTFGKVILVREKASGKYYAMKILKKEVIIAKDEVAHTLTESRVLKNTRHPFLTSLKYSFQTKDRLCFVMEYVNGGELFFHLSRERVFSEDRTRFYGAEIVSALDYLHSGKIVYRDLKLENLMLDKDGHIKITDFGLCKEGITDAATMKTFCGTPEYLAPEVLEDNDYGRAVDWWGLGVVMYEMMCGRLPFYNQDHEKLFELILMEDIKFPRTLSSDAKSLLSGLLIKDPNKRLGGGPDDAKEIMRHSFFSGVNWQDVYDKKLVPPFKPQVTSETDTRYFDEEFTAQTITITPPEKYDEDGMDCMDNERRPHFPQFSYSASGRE
Sequence of Mitogen-activated protein kinase kinase kinase 14 (Homo sapiens) (Q99558 whole entry, looked up): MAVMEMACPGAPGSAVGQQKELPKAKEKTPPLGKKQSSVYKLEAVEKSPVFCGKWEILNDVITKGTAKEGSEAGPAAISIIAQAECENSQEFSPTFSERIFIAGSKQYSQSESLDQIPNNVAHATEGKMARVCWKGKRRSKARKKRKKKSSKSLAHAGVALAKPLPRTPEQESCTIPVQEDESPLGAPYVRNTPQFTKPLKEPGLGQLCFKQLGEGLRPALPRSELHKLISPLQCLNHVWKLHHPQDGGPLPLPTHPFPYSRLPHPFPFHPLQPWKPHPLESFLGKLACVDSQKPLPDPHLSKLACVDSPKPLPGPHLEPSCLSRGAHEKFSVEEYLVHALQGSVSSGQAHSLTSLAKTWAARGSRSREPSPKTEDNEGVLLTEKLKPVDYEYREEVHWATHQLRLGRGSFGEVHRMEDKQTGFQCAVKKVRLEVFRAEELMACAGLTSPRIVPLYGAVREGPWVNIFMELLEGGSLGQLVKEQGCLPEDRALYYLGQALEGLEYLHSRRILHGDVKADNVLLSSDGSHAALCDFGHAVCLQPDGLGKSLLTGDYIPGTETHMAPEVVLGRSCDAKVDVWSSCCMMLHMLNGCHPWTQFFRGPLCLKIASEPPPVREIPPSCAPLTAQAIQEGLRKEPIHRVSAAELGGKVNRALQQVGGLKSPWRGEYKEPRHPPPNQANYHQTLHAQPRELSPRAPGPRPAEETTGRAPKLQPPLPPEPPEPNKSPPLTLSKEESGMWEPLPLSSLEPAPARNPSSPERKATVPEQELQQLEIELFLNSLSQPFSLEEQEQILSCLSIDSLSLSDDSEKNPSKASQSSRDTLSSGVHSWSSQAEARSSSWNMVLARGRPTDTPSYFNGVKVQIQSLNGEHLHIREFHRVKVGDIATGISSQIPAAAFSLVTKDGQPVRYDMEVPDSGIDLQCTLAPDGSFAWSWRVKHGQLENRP
Sequence of Homeodomain-interacting protein kinase 1 (Homo sapiens) (Q86Z02 whole entry, looked up): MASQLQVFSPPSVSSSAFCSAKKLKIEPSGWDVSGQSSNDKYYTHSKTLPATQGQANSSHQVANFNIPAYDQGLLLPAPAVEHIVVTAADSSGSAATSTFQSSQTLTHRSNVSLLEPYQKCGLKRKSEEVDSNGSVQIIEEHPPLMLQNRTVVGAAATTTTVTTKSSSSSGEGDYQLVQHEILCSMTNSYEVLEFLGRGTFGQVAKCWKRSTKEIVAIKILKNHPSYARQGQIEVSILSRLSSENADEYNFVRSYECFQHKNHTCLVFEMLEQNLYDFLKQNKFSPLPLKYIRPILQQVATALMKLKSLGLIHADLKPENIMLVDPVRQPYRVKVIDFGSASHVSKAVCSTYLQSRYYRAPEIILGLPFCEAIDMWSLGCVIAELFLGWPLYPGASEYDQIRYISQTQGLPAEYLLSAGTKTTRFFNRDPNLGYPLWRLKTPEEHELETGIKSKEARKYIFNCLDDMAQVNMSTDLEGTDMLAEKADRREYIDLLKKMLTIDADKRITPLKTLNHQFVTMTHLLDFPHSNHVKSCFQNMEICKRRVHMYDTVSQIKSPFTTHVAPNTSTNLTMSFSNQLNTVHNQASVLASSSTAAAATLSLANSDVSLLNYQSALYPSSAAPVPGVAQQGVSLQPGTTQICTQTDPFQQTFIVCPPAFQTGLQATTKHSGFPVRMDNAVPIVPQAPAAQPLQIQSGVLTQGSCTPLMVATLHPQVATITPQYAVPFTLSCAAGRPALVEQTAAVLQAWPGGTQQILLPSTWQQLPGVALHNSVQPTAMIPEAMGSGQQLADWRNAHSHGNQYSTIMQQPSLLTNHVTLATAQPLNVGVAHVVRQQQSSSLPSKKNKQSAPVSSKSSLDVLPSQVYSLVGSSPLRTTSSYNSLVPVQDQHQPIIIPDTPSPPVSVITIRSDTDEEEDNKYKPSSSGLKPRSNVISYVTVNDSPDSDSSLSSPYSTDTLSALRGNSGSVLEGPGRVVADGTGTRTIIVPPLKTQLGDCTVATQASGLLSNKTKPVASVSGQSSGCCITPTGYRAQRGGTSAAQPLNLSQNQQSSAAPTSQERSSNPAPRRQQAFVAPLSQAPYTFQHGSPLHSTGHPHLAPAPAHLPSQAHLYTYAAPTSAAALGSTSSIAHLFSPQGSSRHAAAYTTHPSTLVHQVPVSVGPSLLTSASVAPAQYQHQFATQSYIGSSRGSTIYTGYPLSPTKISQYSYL

| residual activity [1] | residual activity [2] | residual activity [3] | residual activity [4] | residual activity [5] | residual activity [6] | residual activity [7] | residual activity [8] | residual activity [9] | SMILES |
| --- | --- | --- | --- | --- | --- | --- | --- | --- | --- |
| 94% | 77% | 104% | 35% | 125% | 100% | 68% | 92% | 107% | COc1cc2c(Oc3ccc(-c4nc5ccccc5s4)cc3)ncnc2cc1OCCCN1CCCC1 |
| 101% | 82% | 95% | 18% | 94% | 96% | 52% | 0% | 85% | COc1cc2c(Oc3ccc(-c4nc5ccccc5s4)cc3)ncnc2cc1OCCCN1CCN(C)CC1 |
| 91% | 81% | 103% | 16% | 107% | 107% | 65% | 117% | 97% | COc1cc2c(Oc3ccc(-c4nc5ccccc5s4)cc3F)ncnc2cc1OCCCN1CCN(C)CC1 |
